These compounds were tested against T1, βCat-BCL9 (beta-Catenin/BCL9-BCL9L interaction) (Homo sapiens, UniProt P35222) (assay: ELISA based protein-protein interaction assay, βCat-BCL9). Details: Example 1.
T1 sequence (P35222 1-781): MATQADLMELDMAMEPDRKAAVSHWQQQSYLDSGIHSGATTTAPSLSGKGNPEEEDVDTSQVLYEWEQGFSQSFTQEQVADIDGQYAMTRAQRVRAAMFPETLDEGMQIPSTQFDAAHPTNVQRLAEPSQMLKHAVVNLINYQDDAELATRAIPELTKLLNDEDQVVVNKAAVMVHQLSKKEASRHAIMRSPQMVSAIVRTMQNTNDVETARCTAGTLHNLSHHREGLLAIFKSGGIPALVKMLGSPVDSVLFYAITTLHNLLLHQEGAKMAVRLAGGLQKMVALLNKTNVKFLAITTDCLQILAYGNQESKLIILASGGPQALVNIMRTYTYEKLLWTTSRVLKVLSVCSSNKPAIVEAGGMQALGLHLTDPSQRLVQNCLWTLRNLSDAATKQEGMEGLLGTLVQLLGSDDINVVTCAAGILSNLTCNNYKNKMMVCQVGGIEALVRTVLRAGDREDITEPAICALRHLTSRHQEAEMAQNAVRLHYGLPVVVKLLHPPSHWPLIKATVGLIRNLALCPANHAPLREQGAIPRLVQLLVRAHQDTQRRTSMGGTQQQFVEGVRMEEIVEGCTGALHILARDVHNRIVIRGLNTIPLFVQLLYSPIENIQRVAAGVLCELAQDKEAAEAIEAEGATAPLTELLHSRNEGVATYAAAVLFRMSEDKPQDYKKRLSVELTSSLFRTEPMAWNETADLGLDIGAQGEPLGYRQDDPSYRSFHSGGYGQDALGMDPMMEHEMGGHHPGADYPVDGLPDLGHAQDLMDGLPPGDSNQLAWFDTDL
Format: binding
Excerpt: cDNAs including the binding domains of Lgs and beta-Catenin were fused down-stream of glutathione-S-transferase (GST) cDNA in pGEX-4T inducible bacterial expression vector (Pharmacia). Similar recombinant DNA constructs were generated in the pET-32a(+) vector (Novagen) for expression of fusion protein containing the Thioredoxine-6His tag at their N-terminus. Fusion proteins were produced in BL21 bacteria (e.g. Stratagene) following manufacturer's recommendation.
To isolate the produced fusions protein, bacteria were ground in aluminum oxide (Sigma, A2039) and the resulting powder extracted in lysis buffer (140 mM NaCl, 10 mM Na2HPO4, 1.8 mM KH2PO4, 2.7 mM KCl, 1 mM EDTA, 1% Triton-X-100, 1 mM DTT and protease inhibitors) under rotation for 30 minutes. Supernatants were cleared by centrifugation then filtered on a 0.45 μm membrane before protein purification. For GST tagged protein, lysate were processed on glutathione agarose beads following manufacturer's recommendation (Amersham Pharmacia) and purified proteins eluted in 50 mM Tris-Cl, 10 mM reduced glutathione pH8.0. For thioredoxine-6His fusions, tagged proteins were purified from the lysate on a nickel chelating column (e.g. Hitrap chelating, G.E. Healthcare) using an HPLC system (e.g. Akta Prime, G.E. Healthcare) and eluted under increasing concentration of imidazole. The purified proteins solution was dialyzed against PBS before use. The quality of the preparations was checked by SDS-gel electrophoresis by standard methods well known by persons skilled in the art.
Compound preparation: Compounds can be prepared as 25 mM stock in DMSO and diluted in DMSO to reach final test concentrations of up to 100 μM. Final DMSO concentration in the assay is 5%.
100 μl of GST fusion protein (e.g. GST-βCatenin) diluted to the appropriate concentration in phosphate buffer saline are added per well to a 96 well plate with high protein binding capacity (e.g. Nunc Maxisorp) and placed at 4° C. overnight. The following day the liquid in the wells is discarded and 150 μl 3% bovine serum albumin (BSA) in PBS are added to each well and incubated at room temperature for 2 hours under moderate shaking. This solution is then discarded and each well washed twice with 200 μl PBS. After carefully discarding the second wash, a mixture of 5 μl compound dilution and 95 μl 6His fusion protein (e.g. 6His-Bcl9) diluted to the appropriate concentration in PBS is added to each well. The plate is then incubated for 1 hour at room temperature under moderate shaking. This protein solution is then discarded and the wells washed 3 times with 200 μl 0.1% Tween-20 solution in PBS. After carefully discarding the final wash, 100 μl of anti 6His antibody conjugated to the horse-radish peroxidase (e.g. Roche antibody 11965085001) at the appropriate dilution in 1% BSA in PBS is added to the wells and the plate incubated for 1 hour at room temperature under moderate shaking. This solution is then discarded and the wells washed 3 times with 200 μl 0.1% Tween-20 solution in PBS. After carefully discarding the final wash, 100 μl of HRP substrate […] (TMB) in solution (e.g. Sigma T0440) is added to the wells and the plate incubated up to 30 minutes in the dark at room temperature. The reaction is stopped by addition of 100 μl of 2N HCl to each well and the optical density is measured at 450 nm and 630 nm.
With `Cc1cc(NC(=O)c2ccc(C(=O)Nc3cc(C)on3)nc2)no1` [TG00011289] the IC50 was > 50 µM. With `COc1cc(-c2ccc(NC(=O)c3cc(-c4ccc(C)o4)nc4ccccc34)c(OC)c2)ccc1NC(=O)c1cc(-c2ccc(C)o2)nc2ccccc12` [TGC0000161] the IC50 was > 50 µM. `O=C(Nc1cc(C(F)(F)F)ccc1Cl)c1ccc(C(=O)Nc2cc(C(F)(F)F)ccc2Cl)nc1` [TGC0011278] was tested, and the IC50 was > 100 µM. With `CC(=O)Nc1cccc(NC(=O)c2ccc(C(=O)Nc3cccc(NC(C)=O)c3)nc2)c1` [TGC0011279] the IC50 was > 100 µM. In the case of `CCN(CC)c1ccc(NC(=O)c2ccc(C(=O)Nc3ccc(N(CC)CC)cc3)nc2)cc1` [TGC0011281], the IC50 is reported as > 100 µM. With `COc1ccc(Cl)cc1NC(=O)c1ccc(C(=O)Nc2cc(Cl)ccc2OC)nc1` [TGC0011282] the IC50 was > 100 µM. In the case of `CC(C)NC(=O)c1ccc(C(=O)NC(C)C)nc1` [TGC0011283], the IC50 is reported as > 100 µM. For `O=C(NCc1ccccc1)c1ccc(C(=O)NCc2ccccc2)nc1` [TGC0011284], the IC50 was > 100 µM. With `O=C(Nc1ccccc1)c1ccc(C(=O)Nc2ccccc2)nc1` [TGC0011286] the IC50 was > 100 µM. In the case of `O=C(Nc1ccc(F)c(Cl)c1)c1ccc(C(=O)Nc2ccc(F)c(Cl)c2)nc1` [TGC0011287], the IC50 is reported as > 100 µM. For `O=C(NCc1ccc(F)cc1)c1ccc(C(=O)NCc2ccc(F)cc2)nc1` [TGC0011337], the IC50 was > 10 µM. With `CC(=O)c1cccc(NC(=O)c2ccc(C(=O)Nc3cccc(C(C)=O)c3)nc2)c1` [TGC0011338] the IC50 was > 10 µM. `O=C(NCc1ccc(Cl)cc1)c1ccc(C(=O)NCc2ccc(Cl)cc2)nc1` [TGC0011339] was tested, and the IC50 was > 10 µM. In the case of `O=C(NCCc1cccc(Cl)c1)c1ccc(C(=O)NCCc2cccc(Cl)c2)nc1` [TGC0011340], the IC50 is reported as > 20 µM. For `Cc1cc(I)ccc1NC(=O)c1ccc(C(=O)Nc2ccc(I)cc2C)nc1` [TGC0011341], the IC50 was > 10 µM. `CC(C)(C)C1CCc2c(sc(NC(=O)c3ccc(C(=O)Nc4sc5c(c4C#N)CCC(C(C)(C)C)C5)nc3)c2C#N)C1` (stereo not drawn) [TGC0011343] was tested, and the IC50 was > 100 µM. With `O=C(NCC1CCCO1)c1ccc(C(=O)NCC2CCCO2)nc1` (stereo not drawn) [TGC0011424] the IC50 was > 50 µM. With `O=C(c1ccc(C(=O)N2CCCc3ccccc32)nc1)N1CCCc2ccccc21` [TGC0011425] the IC50 was > 25 µM. With `O=C(c1ccc(C(=O)N2CCOCC2)nc1)N1CCOCC1` [TGC0011426] the IC50 was > 50 µM. `COc1ccc(CNC(=O)c2ccc(C(=O)NCc3ccc(OC)cc3)nc2)cc1` [TGC0011427] was tested, and the IC50 was > 25 µM. For `O=C(c1ccc(C(=O)N2CCC(Cc3ccccc3)CC2)nc1)N1CCC(Cc2ccccc2)CC1` [TGC0011429], the IC50 was > 25 µM. `O=C(Nc1ccc2c(c1)OCO2)c1ccc(C(=O)Nc2ccc3c(c2)OCO3)nc1` [TGC0011431] was tested, and the IC50 was > 50 µM. In the case of `CCCCc1ccc(NC(=O)c2ccc(C(=O)Nc3ccc(CCCC)cc3)nc2)cc1` [TGC0011433], the IC50 is reported as > 50 µM. In the case of `O=C(NCCC1=CCCCC1)c1ccc(C(=O)NCCC2=CCCCC2)nc1` [TGC0011435], the IC50 is reported as > 50 µM. For `CC(CCc1ccccc1)NC(=O)c1ccc(C(=O)NC(C)CCc2ccccc2)nc1` (stereo not drawn) [TGC0011436], the IC50 was > 10 µM. `CCC(C)NC(=O)c1ccc(C(=O)NC(C)CC)nc1` (stereo not drawn) [TGC0011437] was tested, and the IC50 was > 50 µM. With `COc1ccccc1CCNC(=O)c1ccc(C(=O)NCCc2ccccc2OC)nc1` [TGC0011445] the IC50 was > 10 µM. In the case of `COc1cccc(CCNC(=O)c2ccc(C(=O)NCCc3cccc(OC)c3)nc2)c1` [TGC0011446], the IC50 is reported as > 10 µM. `O=C(NCCc1ccc(F)cc1)c1ccc(C(=O)NCCc2ccc(F)cc2)nc1` [TGC0011447] was tested, and the IC50 was > 50 µM. For `O=C(NCCc1ccc2c(c1)OCO2)c1ccc(C(=O)NCCc2ccc3c(c2)OCO3)nc1` [TGC0011448], the IC50 was > 10 µM. With `O=C(NCCc1cccc(C(F)(F)F)c1)c1ccc(C(=O)NCCc2cccc(C(F)(F)F)c2)nc1` [TGC0011452] the IC50 was > 10 µM. In the case of `O=C(NCCc1ccccc1OC(F)(F)F)c1ccc(C(=O)NCCc2ccccc2OC(F)(F)F)nc1` [TGC0011454], the IC50 is reported as > 100 µM. In the case of `O=C(NCCc1ccccn1)c1ccc(C(=O)NCCc2ccccn2)nc1` [TGC0011455], the IC50 is reported as > 100 µM. For `COc1cccc(CCNC(=O)c2ccc(C(=O)NCCc3cccc(OC)c3OC)nc2)c1OC` [TGC0011456], the IC50 was > 100 µM. `COc1ccc(OC)c(CCNC(=O)c2ccc(C(=O)NCCc3cc(OC)ccc3OC)nc2)c1` [TGC0011457] was tested, and the IC50 was > 100 µM. In the case of `CC(=O)Nc1ccc(-c2cnc(-c3ccc(NC(C)=O)cc3)nc2)cc1` [TGC0011524], the IC50 is reported as > 100 µM. For `CC(C)(C)C(=O)Nc1ccc(-c2cnc(-c3ccc(NC(=O)C(C)(C)C)cc3)nc2)cc1` [TGC0011525], the IC50 was > 10 µM. In the case of `O=C(Nc1ccc(-c2cnc(-c3ccc(NC(=O)C(F)(F)F)cc3)nc2)cc1)C(F)(F)F` [TGC0011526], the IC50 is reported as > 100 µM. `CC(C)(C)C(=O)Nc1cccc(C(=O)Nc2ccc(-c3cnc(-c4ccc(NC(=O)c5cccc(NC(=O)C(C)(C)C)c5)cc4)nc3)cc2)c1` [TGC0011527] was tested, and the IC50 was > 10 µM. With `Cc1ccccc1C(=O)Nc1ccc(-c2cnc(-c3ccc(NC(=O)c4ccccc4C)cc3)nc2)cc1` [TGC0011529] the IC50 was > 100 µM. In the case of `O=C(Nc1ccc(-c2cnc(-c3ccc(NC(=O)c4ccccc4Cl)cc3)nc2)cc1)c1ccccc1Cl` [TGC0011530], the IC50 is reported as > 10 µM. In the case of `O=C(Nc1ccc(-c2cnc(-c3ccc(NC(=O)c4ccco4)cc3)nc2)cc1)c1ccco1` [TGC0011531], the IC50 is reported as > 10 µM. In the case of `O=C(Nc1ccc(-c2cnc(-c3ccc(NC(=O)c4ccc(Br)cc4)cc3)nc2)cc1)c1ccc(Br)cc1` [TGC0011533], the IC50 is reported as > 100 µM. With `CC(C)(C)C(=O)Nc1ccc(C(=O)Nc2ccc(-c3cnc(-c4ccc(NC(=O)c5ccc(NC(=O)C(C)(C)C)cc5)cc4)nc3)cc2)cc1` [TGC0011534] the IC50 was > 100 µM. With `O=C(COc1ccc(Br)cc1)Nc1ccc(-c2cnc(-c3ccc(NC(=O)COc4ccc(Br)cc4)cc3)nc2)cc1` [TGC0011565] the IC50 was > 100 µM. In the case of `COc1ccc(CCNC(=O)c2cnc(C(=O)NCCc3ccc(OC)c(OC)c3)cn2)cc1OC` [TGC0011592], the IC50 is reported as > 10 µM. For `COc1ccc(CCNC(=O)c2ccc(C(=O)NCCc3ccc(OC)c(Cl)c3)nc2)cc1Cl` [TGC0011593], the IC50 was > 100 µM. For `O=C(Nc1cccnc1O)c1ccc(C(=O)Nc2cccnc2O)nc1` [TGC0012261], the IC50 was > 100 µM. Compound `COc1ccc(CCNC(=O)c2ccc(-c3ccc(C(=O)NCCc4ccc(OC)c(OC)c4)cn3)nc2)cc1OC` [TGC0012281] has an IC50 of 38 µM. With `O=C(Nc1ccc(F)c(F)c1)c1ccc(C(=O)Nc2ccc(F)c(F)c2)nc1` [TGC0012289] the IC50 was > 50 µM. For `O=C(O)c1ccc(NC(=O)c2ccc(C(=O)Nc3ccc(C(=O)O)cc3)cc2)cc1` [TGC0012290], the IC50 was > 50 µM. In the case of `COc1cc(C(=O)Nc2ccncc2)c(OC)cc1C(=O)Nc1ccncc1` [TGC0012291], the IC50 is reported as > 50 µM. For `CC(=O)Nc1ccc(NC(=O)c2ccc(C(=O)Nc3ccc(NC(C)=O)cc3)cc2)cc1` [TGC0012292], the IC50 was > 50 µM. With `NC(=O)c1ccc(NC(=O)c2ccc(C(=O)Nc3ccc(C(N)=O)cc3)cc2)cc1` [TGC0012293] the IC50 was > 10 µM.
